Article PMC6222516 (Molecules : A Journal of Synthetic Chemistry and Natural …, 2018)

How the values were obtained:
[1] = molecular target: T1, adenosine A3 receptor (Homo sapiens, UniProt P0DMS8); assay: Radioligand competition binding assay, adenosine A3 receptor ([3H]-NECA); set-up: PEI (potency efficiency index), ligand efficiency for A3 receptor: dose or concentration left out as unconfirmed; conditions: for PEI (potency efficiency index), ligand efficiency for A3 receptor: PEI = (inhibition, ratio) / (MW, kD); for inhibition at 10 µM: read-out: % Inhib. 10 μM A3
T1 sequence (P0DMS8 1-318): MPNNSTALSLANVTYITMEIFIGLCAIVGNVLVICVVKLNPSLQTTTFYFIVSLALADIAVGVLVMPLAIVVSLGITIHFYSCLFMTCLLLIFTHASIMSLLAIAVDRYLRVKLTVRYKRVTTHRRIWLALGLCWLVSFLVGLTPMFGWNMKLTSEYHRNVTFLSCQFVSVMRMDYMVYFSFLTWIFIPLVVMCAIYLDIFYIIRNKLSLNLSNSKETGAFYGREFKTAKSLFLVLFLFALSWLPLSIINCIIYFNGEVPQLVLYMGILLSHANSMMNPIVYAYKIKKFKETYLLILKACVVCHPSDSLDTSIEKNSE
Experimental: (§1) The 10 mM stock solutions were prepared by dissolving 0.5–1 mg of the tested compounds in suitable volume of DMSO. Next, dilutions in binding buffer were prepared to obtain concentration ranges 10^−10–10^−5 or 10^−9–10^−4 depending upon the compound potency. The concentration-response curves of the standard controls were made.
Non-specific binding was determined in the presence of R-PIA 100 μM (Sigma P4532, St. Louis, MO, USA). The reaction mixture (Vt: 200 μL/well) was incubated at 25 °C for 180 min, after was filtered and washed six times with 250 μL wash buffer (Tris-HCl 50 mM pH = 7.4), before measuring in a microplate beta scintillation counter (Microbeta Trilux, PerkinElmer, Madrid, Spain).

[2] = molecular target: adenosine A2A receptor (Homo sapiens, UniProt P29274); conditions: read-out: % Inhib. 10 μM A2A
Sequence of adenosine A2A receptor (P29274 whole entry): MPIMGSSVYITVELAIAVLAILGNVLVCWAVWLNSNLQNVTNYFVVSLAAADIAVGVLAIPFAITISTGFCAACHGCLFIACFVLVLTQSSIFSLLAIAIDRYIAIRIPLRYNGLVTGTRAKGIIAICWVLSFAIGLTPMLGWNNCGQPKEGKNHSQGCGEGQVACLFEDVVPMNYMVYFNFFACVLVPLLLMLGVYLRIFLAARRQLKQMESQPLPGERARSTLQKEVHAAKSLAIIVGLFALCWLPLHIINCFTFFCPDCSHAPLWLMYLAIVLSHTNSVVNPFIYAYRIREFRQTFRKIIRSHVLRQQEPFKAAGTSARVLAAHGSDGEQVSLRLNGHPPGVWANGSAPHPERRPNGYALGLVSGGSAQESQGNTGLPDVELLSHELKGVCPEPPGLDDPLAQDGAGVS
Experimental: As the standard control for the studied receptor-binding CGS15943, non-nucleoside agonist was applied. Non-specific binding was determined in the presence of NECA.
as §1
Non-specific binding was determined in the presence of NECA 50 μM (Sigma E2387, St. Louis, MO, USA).

| Structure (SMILES) | PEI (potency efficiency index), ligand efficiency for A3 receptor [1] | Ki [1] [µM] | inhibition at 10 µM [1] [%] | inhibition at 10 µM [2] [%] |
| --- | --- | --- | --- | --- |
| CC[C@@H]1Cn2c(c3nc(-c4cc(Cl)cc(Cl)c4Cl)nc-3n(C)c2=O)N1.Cl [PSB 10 hydrochloride, reference compound] | 2.51 |  |  |  |
| OC[C@H]1O[C@@H](n2cnc3c(NCCCc4ccccc4)ncnc32)[C@H](O)[C@@H]1O [Compound 4] | 2.54 | 0.0075 | 98 ± 1 | 32 ± 1 |
| Nc1ncnc2c1ncn2[C@@H]1O[C@H](CO)[C@@H](O)[C@H]1OCOCCCc1ccccc1 [Compound 12, 2′-O-(3-Phenylpropyleneoxymethyl)-adenosine] | 1.61 | 2.21 | 67 ± 1 | 2 ± 1 |
| Nc1ncnc2c1ncn2[C@H]1C[C@H](O)[C@@H](CO)O1 [2′-deoxyadenosine, reference compound] | 0.20 |  | 5 ± 1 | 3 ± 1 |
